# In patent publication US20040138234A1, “Histamine receptor antagonists” (Pfizer Inc, priority 2001, published 2004):
# Structures can show the parent of a compound that is named as a salt.
# Experiments:
# [1] = molecular target: T1, histamine H4 receptor (Homo sapiens, UniProt Q9H3N8); assay: Histamine H4 receptor radioligand binding, HEK293 cell line membranes
# T1 construct: expressed in transfected cells; host or cells: HEK293
# Text: The cDNA for the human histamine H3 and H4 receptor can be expressed in a suitable cell line such as HEK293 or CHO. In addition membranes can be prepared from tissues or cells which naturally express either the histamine H3 and/or H4 receptor. Affinity can be assessed at either receptor by assessing the ability of ligands to inhibit the binding of a suitable radioactively labelled ligand to membranes containing either the histamine H3 or H4 receptor. The potency of compounds is compared by calculating their pKI values.
# [2] = test system: human eosinophils; assay: Promotion of chemotaxis of interleukin 5 primed human isolated eosinophils (agonist mode); assay type: cell-based; conditions: interleukin 5 priming; for promotion of chemotaxis of human eosinophils: concentrations of from 10^−4 to 10^−5 M
# Procedure: (§1) A further functional assay for the histamine H4 receptor determines the ability of histamine to induce chemotaxis in eosinophils isolated from human blood. In this assay cells are primed with interleukin 5 and the ability of histaminergic ligands to promote migration of eosinophils across a permeable membrane is studied. The number of cells migrating in a defined period is then counted. Agonist potencies are expressed as EC50 values. Antagonists can also be studied by pre-incubating eosinophils with the compound and then assessing the inhibitory effects on histamine (or other suitable ligand) on eosinophil chemotaxis. The experiments can be performed in one of two ways. Firstly, by increasing the concentration of antagonist versus fixed concentration of agonist and calculating the IC50 for each antagonist. Secondly, by increasing the concentration of antagonist versus increasing the concentration of agonist and expressing the antagonist potency as a pkb or pA2 value, as appropriate.
# [3] = test system: human eosinophils; assay: Inhibition of histamine-induced chemotaxis of human eosinophils (eosinophil pre-incubation method); assay type: cell-based; conditions: for effect on histamine-induced chemotaxis: at concentrations of 10 micromolar; for IC50: Homo sapiens, Eosinophil, eosinophils pre-incubated with antagonist, concentration related
# Procedure: as §1
# T1 sequence (Q9H3N8 whole entry): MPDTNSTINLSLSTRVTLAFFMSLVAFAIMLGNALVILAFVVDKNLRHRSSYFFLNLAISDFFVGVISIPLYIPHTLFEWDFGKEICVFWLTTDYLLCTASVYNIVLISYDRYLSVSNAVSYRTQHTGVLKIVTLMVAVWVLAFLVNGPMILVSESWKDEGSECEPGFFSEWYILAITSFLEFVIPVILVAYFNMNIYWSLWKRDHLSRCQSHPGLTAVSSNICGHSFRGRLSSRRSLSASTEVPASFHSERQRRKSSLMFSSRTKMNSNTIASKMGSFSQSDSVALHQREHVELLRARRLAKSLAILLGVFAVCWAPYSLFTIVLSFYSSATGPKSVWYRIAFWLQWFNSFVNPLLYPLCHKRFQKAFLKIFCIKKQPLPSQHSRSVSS
compound,measurement,setting,value
NC(=NCc1ccc(Cl)cc1)SCCCc1cnc[nH]1 [Clobenpropit],Ki,[1],6.61 nM
CC(CCCCC(=O)Nc1ccc(C(F)(F)F)cc1)NCCc1cnc[nH]1 (stereo not drawn) [HTMT],promotion of chemotaxis of human eosinophils,[2],did not promote chemotaxis
CN/C(=N/CCSCc1nc[nH]c1C)NC#N [cimetidine],effect on histamine-induced chemotaxis,[3],little or no effect
NC(=NCc1ccc(Cl)cc1)SCCCc1cnc[nH]1 [clobenpropit dihydrobromide],IC50,[3],1500 nM
CN(C)CCCSC(=N)N [dimaprit],promotion of chemotaxis of human eosinophils,[2],did not promote chemotaxis
NCCc1c[nH]cn1 [histamine],promotion of chemotaxis of human isolated eosinophils,[2]; concentration range 10^−8 to 10^−5 M,promoted chemotaxis
N=C(N)SCCc1cnc[nH]1 [imetit],promotion of chemotaxis of human eosinophils,[2],did not promote chemotaxis
COc1ccc(CN(CCN(C)C)c2ccccn2)cc1 [mepyramine maleate],effect on histamine-induced chemotaxis,[3],little or no effect
S=C(NC1CCCCC1)N1CCC(c2cnc[nH]2)CC1 [thioperamide maleate],IC50,[3],830 nM
